US20050256034A1, “Dioxolane analogs for improved inter-cellular delivery” (priority 2000, published 2005)
Where “and” joins values, the source holds several entries; their conditions need not be identical. Equal values may be shown once. Read-outs that look alike come from different tables or passages of the source.

How the values were obtained:
Assay type in all cases: cell-based
CEM/dCK- = assay: MMT or WST-1 assay at 72 hr; conditions: for Resistance Factor: CEM/dCK- versus CCRF-CEM
H-460 = assay: MTT assay at 72 hr; conditions: Homo sapiens, NCI-H460, read-out: IC50 (MTT at 72 hr) H-460, 24 h exposure, single experiments
[1] = 3H-Thymidine Incorporation Assay (24 hr drug, wash, another 48 hr; 72 hr assay); conditions: for IC50: 24 hr exposure to drug, wash, another 48 hr
CCRF-CEM = assay: MMT or WST-1 assay at 72 hr; conditions: Homo sapiens, read-out: IC50 (MMT or WST-1 at 72 hr) CCRF-CEM, 24 h exposure, single experiments
MCF-7 = assay: MTT assay at 72 hr; conditions: Homo sapiens, MCF7, read-out: IC50 (MTT at 72 hr) MCF-7, 24 h exposure, single experiments
SF-268 = assay: MTT assay at 72 hr; conditions: Homo sapiens, SF-268, read-out: IC50 (MTT at 72 hr) SF-268, 24 h exposure, single experiments
CEM cells = assay: CellTiter 96 cell proliferation assay, 48 h exposure; conditions: for effect of es transport inhibitor NBMPR on resistance of CEM cells: presence of NBMPR
Experimental: The chemosensitivity of suspension cells lines (e.g., CEM or CEM-derivatives) is assessed using the CellTiter 96 ? proliferation assay. […] Chemosensitivity is expressed as 50% (ECso) of the dose response curve determined, e.g., using GraphPad Prism 2.01 (GraphPad Software, San Diego, Calif.). Adherent cell lines (e.g., DU145 or DU145^R) are seeded (˜10^5 cells) in triplicate dishes, 24 h before drug exposure. Growth inhibition is determined by trypsinization and counting cells electronically.

[2] = CCRF-CEM, read-out: IC50 (3H-TdR incorporation at 72 hr) CCRF-CEM 24 h, CCRF-CEM T-cell leukemia
[3] = CCRF-CEM, read-out: IC50 (3H-TdR incorporation at 72 hr) CEM/dCK- 24 h, CEM/dCK- (CCRF-CEM deoxycytidine kinase-deficient)
[4] = NCI-H460, read-out: IC50 (3H-TdR incorporation at 72 hr) H-460 24 h, H-460 human lung carcinoma

Structure (SMILES): Nc1ccn([C@@H]2CO[C@H](COC(=O)C34CCC[C@@H]5C[C@@H]3C[C@H]5C4)O2)c(=O)n1 [Compound 232, HEXAHYDRO-2,5-METHANO-PENTA- LENE-3A-CARBOXYLIC ACID 4-(4-AMINO-2-OXO-2H-PYRIMI- DIN-1-YL)-[1,3]DI- OXOLAN-2-YL METHYL ESTER]
- Resistance Factor (CEM/dCK-): 210
- IC50 (CEM/dCK-; read-out: IC50 (MMT or WST-1 at 72 hr) CEM/dCK-, 24 h exposure, single experiments): 2100 nM
- IC50 (H-460): 6.9 nM
- IC50 [1, 2]: 3.7 nM
- IC50 [1, 3]: 5800 nM
- IC50 [1, 4]: 0.53 nM
- IC50 ([1]; read-out: IC50 (3H-TdR incorporation at 72 hr) CCRF-CEM 24 h, CCRF-CEM T-cell leukemia): 1.9 nM
- IC50 ([1]; read-out: IC50 (3H-TdR incorporation at 72 hr) CEM/dCK- 24 h, CEM/dCK- (CCRF-CEM deoxycytidine kinase-deficient)): 4500 nM
- IC50 ([1]; read-out: IC50 (3H-TdR incorporation at 72 hr) H-460 24 h, H-460 human lung carcinoma): 0.38 nM
- IC50 (CCRF-CEM): 10 nM
- IC50 (MCF-7): 20 nM
- IC50 (SF-268): 160 nM

Structure (SMILES): Cc1ccc(C)c(OCCCC(C)(C)C(=O)OC[C@H]2OC[C@@H](n3ccc(N)nc3=O)O2)c1 [Compound 237]
- IC50 [1, 2]: 1.6 nM
- IC50 [1, 3]: 18000 nM
- IC50 ([1]; MCF7, read-out: IC50 (3H-TdR incorporation at 72 hr) MCF-7 24 h, MCF-7 human breast carcinoma): ≤ 0.1 nM
- IC50 [1, 4]: 2.6 nM
- IC50 ([1]; SF-268, read-out: IC50 (3H-TdR incorporation at 72 hr) SF-268 24 h, SF-268 human central nervous system tumor): 88 nM
- Resistance Factor = Ratio of dCK- on Wild-type CCRF-CEM ([1]; ratio of IC50 CEM/dCK- to IC50 CCRF-CEM): 11,250
- IC50 (SF-268): 3300 nM

Structure (SMILES): CC(C)C[C@H](NC(=O)[C@H](C)NC(=O)OC(C)(C)C)C(=O)Nc1ccn([C@@H]2CO[C@H](CO)O2)c(=O)n1 [Compound 263, (1-{1-[1-(2-HYDROXY- METHYL-[1,3]DIOXO- LAN-4-YL)-2-OXO-1,2-DI- HYDRO-PYRIMIDIN-4-YLCARBA- MOYL]-3-METHYL-BUTYL- CARBAMOYL}-ETHYL)-CARBAMIC ACID TERT-BUTYL ESTER]
- Resistance Factor (CEM/dCK-): >5 and >7

Structure (SMILES): Nc1ccn([C@@H]2O[C@H](CO)[C@@H](O)[C@@H]2O)c(=O)n1 [Cytarabine, cytarabine]
- effect of es transport inhibitor NBMPR on resistance of CEM cells (CEM cells): significantly increased resistance

Structure (SMILES): Nc1ccn([C@@H]2O[C@H](CO)[C@@H](O)C2(F)F)c(=O)n1 [Gemcitabine, gemcitabine]
- EC50 (CEM cells; Homo sapiens, CCRF-CEM, 48 h, read-out: Chemosensitivity, 50% of the dose response curve (EC50), CEM + NBMPR (100 nM), 48 h exposure, mean ± SD): 70 ± 18 nM
- effect of es transport inhibitor NBMPR on resistance of CEM cells (CEM cells): significantly increased resistance
